Assay results: patent US11111251B2, “Positive allosteric modulators of the muscarinic acetylcholine receptor M1” (Vanderbilt University, priority 2016, dated 2021)
Where two headings read alike, the source gives them in different places.

Target: T1, human mAChR M1 (Homo sapiens, UniProt P11229)
T1 sequence (P11229 1-460): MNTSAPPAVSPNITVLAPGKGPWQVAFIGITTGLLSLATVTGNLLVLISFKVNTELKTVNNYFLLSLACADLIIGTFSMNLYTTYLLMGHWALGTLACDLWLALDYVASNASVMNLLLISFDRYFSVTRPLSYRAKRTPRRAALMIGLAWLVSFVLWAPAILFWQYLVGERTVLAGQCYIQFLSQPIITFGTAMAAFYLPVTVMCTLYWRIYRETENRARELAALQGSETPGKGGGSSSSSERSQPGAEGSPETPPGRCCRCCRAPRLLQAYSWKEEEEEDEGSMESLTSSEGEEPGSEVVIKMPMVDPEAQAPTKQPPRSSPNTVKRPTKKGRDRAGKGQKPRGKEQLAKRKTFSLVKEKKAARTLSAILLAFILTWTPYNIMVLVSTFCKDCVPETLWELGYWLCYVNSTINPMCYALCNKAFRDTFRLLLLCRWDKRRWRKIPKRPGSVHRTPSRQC
Test: mAChR M1 cell-based functional assay: calcium mobilization, positive allosteric modulator mode (increase in EC20 acetylcholine response)
Conditions: for Emax: read-out: Human M1 Emax (%)
Summary of the method: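 PAM potency reflects the concentration-dependent increase in calcium response to an EC20 acetylcholine challenge, given 144 s into a 300 s read after compound addition at 4 s (EC80 follows at 230 s). Cells were hM1-expressing CHO-K1, loaded 50 min with Fluo-4 AM. Curves used 11 points at 1:3 dilutions and four-parameter logistic fitting.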

[1] = Table 2, human M1, read-out: Human M1 EC50
[2] = Table 1, mAChR M1 cell-based functional assay, PAM mode, species not given, read-out: EC50

Structure (SMILES)	EC50 [1]	Emax (Table 2, human M1)	EC50 [2]
CC1(NC(=O)c2cc(Cc3ccc(-n4cccn4)cc3)c3sccc3n2)CCCNC1 (stereo not drawn) [Compound 291, N-(3-methyl-3-piperidyl)-7-[(4-pyrazol-1-ylphenyl)methyl]thieno[3,2-b]pyridine-5-carboxamide]	1120 nM	64.3%	–
Cn1ccc(-c2ccc(Cc3cc(C(=O)NC4CC5(COC5)C4)nc4ccsc34)cn2)n1 [Compound 351, 7-[[6-(1-methylpyrazol-3-yl)-3-pyridyl]methyl]-N-(2-oxaspiro[3.3]heptan-6-yl)thieno[3,2-b]pyridine-5-carboxamide]	143 nM	89.9%	–
N#CC1(NC(=O)c2cc(Cc3ccc(-n4cccn4)cc3)c3sccc3n2)CC1 [Compound 282, N-(1-cyanocyclopropyl)-7-[(4-pyrazol-1-ylphenyl)methyl]thieno[3,2-b]pyridine-5-carboxamide]	601 nM	40%	–
Cc1nc(-c2ccc(Cc3cc(C(=O)N4CCC[C@@H](O)C4)nc4ccsc34)cc2)co1 [Compound 173, [(3R)-3-hydroxy-1-piperidyl]-[7-[[4-(2-methyloxazol-4-yl)phenyl]methyl]thieno[3,2-b]pyridin-5-yl]methanone]	> 10000 nM	37%	–
Cc1csc2c(Cc3ccc(-n4cccn4)cc3)cc(C(=O)NC3COC3)nc12 [Compound 319, 3-methyl-N-(oxetan-3-yl)-7-[(4-pyrazol-1-ylphenyl)methyl]thieno[3,2-b]pyridine-5-carboxamide]	1810 nM	56.1%	–
CO[C@@H]1CCCC[C@H]1NC(=O)c1cc(Cc2ccc(C)nc2)c2scc(C)c2n1 [Compound 106, N-[(1R,2R)-2-methoxycyclohexyl]-3-methyl-7-[(6-methyl-3-pyridyl)methyl]thieno[3,2-b]pyridine-5-carboxamide]	2200 nM	82.1%	–
CCN1CCC[C@H]1CNC(=O)c1cc(Cc2ccc(-c3ccn(C)n3)nc2)c2sccc2n1 [Compound 428]	1890 nM	70.2%	–
Cn1ccc(-c2ccc(Cc3cc(C(=O)NC4CC(F)(F)C4)nc4ccn(C)c34)cn2)n1 [Compound 511, N-(3,3-difluorocyclobutyl)-1-methyl-7-[[6-(1-methylpyrazol-3-yl)-3-pyridyl]methyl]pyrrolo[3,2-b]pyridine-5-carboxamide;]	1770 nM	66.1%	–
CO[C@H]1CCCC[C@@H]1NC(=O)c1cc(Cc2ccc(C)nc2)c2sccc2n1 [Compound 48, N-[(1S,2S)-2-methoxycyclohexyl]-7-[(6-methyl-3-pyridyl)methyl]thieno[3,2-b]pyridine-5-carboxamide]	–	–	5770 nM
CC(C)(C)N1CC(NC(=O)c2cc(Cc3ccc(-n4cccn4)cc3)c3sccc3n2)C1 [Compound 434, N-(1-tert-butylazetidin-3-yl)-7-[(4-pyrazol-1-ylphenyl)methyl]thieno[3,2-b]pyridine-5-carboxamide]	1460 nM	66.2%	–
Cc1ncc(Cc2cc(C(=O)NC3CCOCC3)nc3ccsc23)s1 [Compound 135, 7-[(2-methylthiazol-5-yl)methyl]-N-tetrahydropyran-4-yl-thieno[3,2-b]pyridine-5-carboxamide]	> 10000 nM	60.9%	–
Cc1ccc(Oc2cc(C(=O)N[C@H]3CCC[C@@H]3O)nc3ccsc23)cn1 [Compound 18, N-[(1S,2S)-2-hydroxycyclopentyl]-7-[(6-methyl-3-pyridyl)oxy]thieno[3,2-b]pyridine-5-carboxamide]	–	–	> 10000 nM
COCCNC(=O)c1cc(Cc2ccc(-c3ccn(C)n3)nc2)c2sccc2n1 [Compound 416, N-(2-methoxyethyl)-7-[[6-(1-methylpyrazol-3-yl)-3-pyridyl]methyl]thieno[3,2-b]pyridine-5-carboxamide]	1290 nM	71.4%	–

Second part, the compound after the results:

EC50 [1]	Emax (Table 2, human M1)	EC50 [2]	Structure (SMILES)
16.8 nM	81.6%	–	Cc1nc(-c2ccc(Cc3cc(C(=O)N[C@@H]4CCOC[C@H]4O)nc4ccsc34)cc2)co1 [Compound 166, N-[(3S,4R)-3-hydroxytetrahydropyran-4-yl]-7-[[4-(2-methyloxazol-4-yl)phenyl]methyl]thieno[3,2-b]pyridine-5-carboxamide]
6.24 nM	53.2%	–	Cn1ccc2nc(C(=O)N[C@H]3CCOC[C@@H]3O)cc(Cc3ccc(-c4nccs4)cc3)c21 [Compound 478, N-[(3R,4S)-3-hydroxytetrahydropyran-4-yl]-1-methyl-7-[(4-thiazol-2-ylphenyl)methyl]pyrrolo[3,2-b]pyridine-5-carboxamide]
345 nM	64.9%	–	O=C(NC[C@@H]1CCCO1)c1cc(Cc2ccc(-c3nccs3)cc2)c2sccc2n1 [Compound 389, N-[[(2S)-tetrahydrofuran-2-yl]methyl]-7-[(4-thiazol-2-ylphenyl)methyl]thieno[3,2-b]pyridine-5-carboxamide]
1050 nM	86.2%	–	Cc1csc2c(Cc3ccc(-n4cccn4)cc3)cc(C(=O)NC3CCOCC3)nc12 [Compound 115, 3-methyl-7-[(4-pyrazol-1-ylphenyl)methyl]-N-tetrahydropyran-4-yl-thieno[3,2-b]pyridine-5-carboxamide]
> 10000 nM	75%	–	Cc1ncc(Cc2cc(C(=O)N[C@@H]3CCOC[C@H]3O)nc3ccsc23)cn1 [Compound 128, N-[(3S,4R)-3-hydroxytetrahydropyran-4-yl]-7-[(2-methylpyrimidin-5-yl)methyl]thieno[3,2-b]pyridine-5-carboxamide]
422 nM	85.6%	–	Cn1cc(-c2ccc(Cc3cc(C(=O)NC4CCOC(C)(C)C4)nc4ccn(C)c34)cn2)cn1 (stereo not drawn) [Compound 472, N-(2,2-dimethyltetrahydropyran-4-yl)-1-methyl-7-[[6-(1-methylpyrazol-4-yl)-3-pyridyl]methyl]pyrrolo[3,2-b]pyridine-5-carboxamide]
27.1 nM	78.6%	–	Cn1cc(-c2ccc(Cc3cc(C(=O)NC4CCOCC4)nc4ccsc34)cc2)nn1 [Compound 229, 7-[[4-(1-methyltriazol-4-yl)phenyl]methyl]-N-tetrahydropyran-4-yl-thieno[3,2-b]pyridine-5-carboxamide]
410 nM	70.8%	–	Cn1ccc2nc(C(=O)NC3CCOC(C)(C)C3)cc(Cc3ccc(-c4cscn4)cc3)c21 (stereo not drawn) [Compound 461, N-(2,2-dimethyltetrahydropyran-4-yl)-1-methyl-7-[(4-thiazol-4-ylphenyl)methyl]pyrrolo[3,2-b]pyridine-5-carboxamide]
108 nM	73.5%	–	Cn1ccc2nc(C(=O)N[C@H]3CC[C@@H]3O)cc(Cc3ccc(-c4cscn4)cc3)c21 [Compound 459, N-[(1S,2S)-2-hydroxycyclobutyl]-1-methyl-7-[(4-thiazol-4-ylphenyl)methyl]pyrrolo[3,2-b]pyridine-5-carboxamide]
4280 nM	76.8%	–	Cn1ccc(-c2ccc(Cc3cc(C(=O)NC4CC(F)C4)nc4ccn(C)c34)cn2)n1 (stereo not drawn) [Compound 510, N-(3-fluorocyclobutyl)-1-methyl-7-[[6-(1-methylpyrazol-3-yl)-3-pyridyl]methyl]pyrrolo[3,2-b]pyridine-5-carboxamide;]
1880 nM	75.3%	–	COCCCNC(=O)c1cc(Cc2ccc(-c3nccs3)cc2)c2sccc2n1 [Compound 372, N-(3-methoxypropyl)-7-[(4-thiazol-2-ylphenyl)methyl]thieno[3,2-b]pyridine-5-carboxamide]
> 10000 nM	61.9%	–	Cn1ncc2nc(C(=O)N[C@@H]3CC[C@H]3O)cc(Cc3ccc(-c4cscn4)cc3)c21 [Compound 490, N-[(1R,2R)-2-hydroxycyclobutyl]-1-methyl-7-[(4-thiazol-4-ylphenyl)methyl]pyrazolo-[4,3-b]pyridine-5-carboxamide]
1340 nM	68.7%	–	C[C@H]1COCC[C@@H]1NC(=O)c1cc(Cc2ccc(-c3cncs3)cc2)c2sccc2n1 [Compound 393, N-[(3R,4S)-3-methyltetrahydropyran-4-yl]-7-[(4-thiazol-5-ylphenyl)methyl]thieno[3,2-b]pyridine-5-carboxamide]
108 nM	84.7%	–	Cc1cc2nc(C(=O)N[C@H]3CCOC[C@@H]3O)cc(Cc3ccc(-n4cccn4)cc3)c2s1 [Compound 238, N-[(3R,4S)-3-hydroxytetrahydropyran-4-yl]-2-methyl-7-[(4-pyrazol-1-ylphenyl)methyl]thieno[3,2-b]pyridine-5-carboxamide]
4570 nM	40.5%	–	O=C(NC1CC(F)C1)c1cc(Cc2ccc(-c3cncs3)cc2)c2sccc2n1 (stereo not drawn) [Compound 401, N-(3-fluorocyclobutyl)-7-[(4-thiazol-5-ylphenyl)methyl]thieno[3,2-b]pyridine-5-carboxamide]
–	–	3260 nM	Cn1cc(-c2ccc(Oc3cc(C(=O)N[C@H]4CCOC[C@@H]4O)nc4ccsc34)c(F)c2)cn1 [Compound 7]
97.4 nM	74.4%	–	O=C(NCC1CCOCC1)c1cc(Cc2ccc(-n3cccn3)cc2)c2sccc2n1 [Compound 288, 7-[(4-pyrazol-1-ylphenyl)methyl]-N-(tetrahydropyran-4-ylmethyl)thieno[3,2-b]pyridine-5-carboxamide]
